The source of these data is PubChem BioAssay AID1963447 (Molecular Pharmacology Branch, DTP, NCI, 2024).

In the test the test system is 885512-296-R-J2-PDC complex spheroid growth, % test/control. Kind of test: Anticancer human tumor 885512-296-R-J2-PDC patient-derived breast carcinoma cell line growth inhibition [Asc]. To be noted: for viability, T/C: stronger effect = lower value. In a few lines:
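Complex spheroids combining tumor cells with HUVEC endothelial cells and human MSCs, at 37 degrees C, 5% CO2; agents tested alone or combined, half-log dilutions from at or near clinical Cmax, or 10 microM if Cmax unknown.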

Values joined by “and” are separate entries in the source; they are usually repeats but may differ in a detail not shown here. Equal values may be shown once.
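Note: spheroids exposed to compounds for seven days.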
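Throughout, for viability, T/C: 100% = DMSO vehicle control wells.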

As usually defined, the IC50 is the midpoint of a concentration-inhibition curve. Broadly, the viability, T/C is the result in the treated group divided by that in the control group, in per cent. With `O=C(c1ccc(F)c(F)c1Nc1ccc(I)cc1F)N1CC(O)([C@@H]2CCCCN2)C1` + CNC(C)C(=O)NC1CN(S(=O)(=O)c2cccc(S(=O)(=O)N3CCC4CCC(C(=O)NC(c5ccccc5)c5ccccc5)N4C(=O)C(NC(=O)C(C)NC)C3)c2)CCC2CCC(C(=O)NC(c3ccccc3)c3ccccc3)N2C1=O, the IC50 came to 94 nM (curve of first compound, second compound 0.01 µM); 107 nM (curve of first compound, second compound 0.0316 µM); 112 nM (curve of first compound, second compound 0.1 µM); 126 nM (curve of first compound, second compound 0.316 µM); 159 nM (curve of first compound, second compound 1 µM). Moreover, the viability, T/C is 92.1% (second compound 0.01 µM, first compound 0.00316 µM); 80.5% (second compound 0.01 µM, first compound 0.01 µM); 59% (second compound 0.01 µM, first compound 0.0316 µM); 50.2% (second compound 0.01 µM, first compound 0.1 µM); 37.5% (second compound 0.01 µM, first compound 0.316 µM); 15.1% (second compound 0.01 µM, first compound 1 µM). Moreover, the viability, T/C reads like this: (second compound 0.0316 µM, first compound 0.00316 µM) 98.3%; (second compound 0.0316 µM, first compound 0.01 µM) 84.3%; (second compound 0.0316 µM, first compound 0.0316 µM) 78%; (second compound 0.0316 µM, first compound 0.1 µM) 48%; (second compound 0.0316 µM, first compound 0.316 µM) 32%; (second compound 0.0316 µM, first compound 1 µM) 16.6%. The viability, T/C is 99.5% (second compound 0.1 µM, first compound 0.00316 µM); 95.8% (second compound 0.1 µM, first compound 0.01 µM); 78.6% (second compound 0.1 µM, first compound 0.0316 µM); 47.8% (second compound 0.1 µM, first compound 0.1 µM); 35.1% (second compound 0.1 µM, first compound 0.316 µM); 15.9% (second compound 0.1 µM, first compound 1 µM). The viability, T/C by setting is: (second compound 0.316 µM, first compound 0.00316 µM) 102%; (second compound 0.316 µM, first compound 0.01 µM) 99.5%; (second compound 0.316 µM, first compound 0.0316 µM) 82.5%; (second compound 0.316 µM, first compound 0.1 µM) 53.8%; (second compound 0.316 µM, first compound 0.316 µM) 31.4%; (second compound 0.316 µM, first compound 1 µM) 16.5%. In addition, the viability, T/C is, setting by setting: (second compound 1 µM, first compound 0.00316 µM) 103%; (second compound 1 µM, first compound 0.01 µM) 96.2%; (second compound 1 µM, first compound 0.0316 µM) 89.7%; (second compound 1 µM, first compound 0.1 µM) 60.9%; (second compound 1 µM, first compound 0.316 µM) 32.8%; (second compound 1 µM, first compound 1 µM) 16.8%.

Turning to `COc1c(OCCCN2CCOCC2)ccc2c3n(c(=NC(=O)c4cnc(N)nc4)nc12)CCN3`, the viability, T/C by setting is: (compound 0.00316 µM) 99.3% and 90.1% and 99%; (compound 0.01 µM) 100% and 92.6% and 92%; (compound 0.0316 µM) 86.8% and 80.5% and 89.4%; (compound 0.1 µM) 74.3% and 76% and 89%; (compound 0.316 µM) 43.6% and 43.9% and 56.3%; (compound 1 µM) 6.01% and 5.98% and 9.51%. Further, under “curve of compound”, the IC50 is 249 nM and 255 nM and 370 nM.
